Assay results from patent US20020028805A1, “Methods of inhibiting uterotrophic effects of estrogenic agents” (American Home Products Corporation, priority 2000, published 2002).
Entries after “also recorded” stand apart in the source; their conditions may differ.

System: immature rat uterus
Test: 3-day uterine model: uterine wet weight in immature rats
Settings: for Effect on ethinyl estradiol induced uterine wet weight increase (in words): 100 μg in combination with 0.5 μg ethinyl estradiol; for Effect on ethinyl estradiol induced uterine wet weight increase (in words) / Effect on raloxifene induced uterine stimulation (in words): three days; for % increase weight (vs. control) / Mean Wet Weight: 3 days; for Effect on raloxifene induced uterine stimulation (in words): co-administered with raloxifene (10 μg; 1 μmg [sic], ~0.2 mg/kg), 1-100 μg, 0.2 mg/kg; for Agonist effect on uterine wet weight (in words) / Increase in uterine wet weight over control: compound alone; for Agonist effect on uterine wet weight (in words): 10 and 100 μg/rat, three days of treatment, 1-way ANOVA; for Increase in uterine wet weight over control: for TSE-424 the highest increase seen
[1] = Experiment No. 1, 10 μg alone, s.c.
[2] = Experiment No. 1, 100 μg + EE (0.5 μg ethinyl estradiol), s.c.
[3] = Experiment No. 1, 100 μg alone, s.c.
[4] = Experiment No. 2, 1 μg + Raloxifene 10 μg
[5] = Experiment No. 2, 10 μg + Raloxifene 10 μg
[6] = Experiment No. 2, 10 μg alone, s.c.
[7] = Experiment No. 2, 50 μg + Raloxifene 10 μg
[8] = Experiment No. 2, 100 μg + Raloxifene 10 μg
[9] = Experiment No. 2, 100 μg alone, s.c.
[10] = Experiment No. 4, 10 μg alone, s.c.
[11] = Experiment No. 4, 100 μg alone, s.c.
[12] = Experiment No. 3, 10 μg alone, s.c.
[13] = Experiment No. 3, 100 μg + EE (0.5 μg ethinyl estradiol), s.c.
[14] = Experiment No. 3, 100 μg alone, s.c.
[15] = Experiment No. 4, 1 μg + Raloxifene 10 μg
[16] = Experiment No. 4, 10 μg + Raloxifene 10 μg
[17] = Experiment No. 4, 50 μg + Raloxifene 10 μg
[18] = Experiment No. 4, 100 μg + Raloxifene 10 μg

SMILES: Cc1c(-c2ccc(O)cc2)n(Cc2ccc(OCCN3CCCCC3)cc2)c2ccc(O)cc12 [ERA-923, 2-(4-Hydroxy-phenyl)-3-methyl-1-(4-(2-piperidin-1-yl-ethoxy)-benzyl]-1H-indol-5-ol]
- Effect on ethinyl estradiol induced uterine wet weight increase (in words): reduced ethinyl estradiol induced wet weight increases to control values; also recorded: reduced the increased wet weight stimulated by ethinyl estradiol to control
- % increase weight (vs. control) [1]: 129.8%
- Mean Wet Weight [1]: 39.9 mg
- % increase weight (vs. control) [2]: 79.1%
- Mean Wet Weight [2]: 24.3 mg
- % increase weight (vs. control) [3]: 89.3%
- Mean Wet Weight [3]: 27.5 mg
- % increase weight (vs. control) [4]: 144.4%
- Mean Wet Weight [4]: 38.7 mg
- % increase weight (vs. control) [5]: 100.8%
- Mean Wet Weight [5]: 27.0 mg
- % increase weight (vs. control) [6]: 93.5%
- Mean Wet Weight [6]: 25.1 mg
- % increase weight (vs. control) [7]: 81.6%
- Mean Wet Weight [7]: 21.9 mg
- % increase weight (vs. control) [8]: 81.6%
- Mean Wet Weight [8]: 21.9 mg
- % increase weight (vs. control) [9]: 75.1%
- Mean Wet Weight [9]: 20.1 mg
- Effect on raloxifene induced uterine stimulation (in words): antagonized the uterine stimulation; also recorded: reduced to control values or less at all doses except for 1 μg
- Agonist effect on uterine wet weight (in words): neither ERA-923 nor TSE-424 statistically increased uterine wet weight; also recorded: neither ERA-923 (Experiment No.1) nor TSE-424 (Experiment No. 3) treatments resulted in a statistical increase in uterine wet weight

SMILES: C#C[C@]1(O)CC[C@H]2[C@@H]3CCc4cc(O)ccc4[C@H]3CC[C@@]21C [Ethinyl estradiol, 17α-ethinyl estradiol, reference compound]
- % increase weight (vs. control) (Experiment No. 1, 0.5 μg s.c.): 205.7%
- Mean Wet Weight (Experiment No. 1, 0.5 μg s.c.): 63.2 mg
- % increase weight (vs. control) (Experiment No. 2, 0.5 μg s.c.): 317.3%
- Mean Wet Weight (Experiment No. 2, 0.5 μg s.c.): 85.1 mg
- % increase weight (vs. control) (Experiment No. 3, 0.5 μg s.c.): 262.1%
- Mean Wet Weight (Experiment No. 3, 0.5 μg s.c.): 94.1 mg
- % increase weight (vs. control) (Experiment No. 4, 0.5 μg s.c.): 406.4%
- Mean Wet Weight (Experiment No. 4, 0.5 μg s.c.): 98.7 mg

SMILES: O=C(c1ccc(OCCN2CCCCC2)cc1)c1c(-c2ccc(O)cc2)sc2cc(O)ccc12 [Raloxifene, raloxifene, reference compound]
- % increase weight (vs. control) [6]: 172.4%
- Mean Wet Weight [6]: 46.2 mg
- % increase weight (vs. control) [9]: 145.8%
- Mean Wet Weight [9]: 39.1 mg
- % increase weight (vs. control) [10]: 185.2%
- Mean Wet Weight [10]: 45.0 mg
- % increase weight (vs. control) [11]: 175.9%
- Mean Wet Weight [11]: 42.7 mg
- Agonist effect on uterine wet weight (in words): statistically increased uterine wet weights at both tested doses
- Increase in uterine wet weight over control: 75-85%

SMILES: Cc1c(-c2ccc(O)cc2)n(Cc2ccc(OCCN3CCCCCC3)cc2)c2ccc(O)cc12 [TSE-424, 1-[4-(2-Azepan-1yl-ethoxy)-benzyl]-2-(4-hydroxy-phenyl)-3-methyl-1H-indol-5-ol]
- Effect on ethinyl estradiol induced uterine wet weight increase (in words): reduced ethinyl estradiol induced wet weight increases to control values; also recorded: less than control values
- % increase weight (vs. control) [12]: 92.4%
- Mean Wet Weight [12]: 33.2 mg
- % increase weight (vs. control) [13]: 77.7%
- Mean Wet Weight [13]: 27.9 mg
- % increase weight (vs. control) [14]: 81.9%
- Mean Wet Weight [14]: 29.4 mg
- % increase weight (vs. control) [15]: 170.4%
- Mean Wet Weight [15]: 41.4 mg
- % increase weight (vs. control) [16]: 142%
- Mean Wet Weight [16]: 34.5 mg
- % increase weight (vs. control) [10]: 135.0%
- Mean Wet Weight [10]: 32.7 mg
- % increase weight (vs. control) [17]: 139.3%
- Mean Wet Weight [17]: 33.8 mg
- % increase weight (vs. control) [18]: 136.5%
- Mean Wet Weight [18]: 33.2 mg
- % increase weight (vs. control) [11]: 109.4%
- Mean Wet Weight [11]: 26.6 mg
- Effect on raloxifene induced uterine stimulation (in words): antagonized the uterine stimulation; also recorded: reduced the increased wet weight stimulated by raloxifene to the highest increase seen with TSE-424 alone
- Agonist effect on uterine wet weight (in words): neither ERA-923 nor TSE-424 statistically increased uterine wet weight; also recorded: neither ERA-923 (Experiment No.1) nor TSE-424 (Experiment No. 3) treatments resulted in a statistical increase in uterine wet weight
- Increase in uterine wet weight over control: 35%
